In article PMC10499988 (Nature Communications, 2023):
Where two headings read alike, the source gives them in different places. Positions of bridges follow the written chain, without caps; N, C: chain ends. Residues, ends and D or L forms follow the SMILES beside them.

Assays:
HSA [1] = target: T1, HSA (Homo sapiens, UniProt P02768); design: purchased Sigma-Aldrich A4327-1G; conditions: cited from earlier work
[2] = In vivo pharmacokinetic experiment, plasma LC-MS after tail vein injection
Experimental: All the procedures and experiments involving animals were carried out using a protocol approved by the Health Sciences Laboratory Animal Services (HSLAS), University of Alberta. The protocol was approved as per the Canadian Council on Animal Care (CCAC) guidelines. Approved protocol # AUP00002467. All mice (Strain: C57BL/6J) were maintained in pathogen-free conditions at the University of Alberta breeding facility. Housed on ventilated caging (Tecniplast); Temperature: 21 +/− 2 degrees Celsius; Humidity: 30–70% rH; Light Cycle: 12 L:12D. […] Peptide mixtures of 100 µM were prepared in PBS. Mice were administered with 200 µL of the peptide mixture solution with tail veil injection. A series of 6 blood samples were collected at time points from 2 min up to 240 min (Fig. 6B: 2 min, 60 min; Fig. 6C–E: 2 min, 60 min, 180 min; Supplementary Fig. 32: 2 min, 5 min, 30 min, 60 min, 120 min, 240 min). Samples were collected in tubes that contained sodium citrate as an anticoagulant and then centrifuged at 5 min at 2000 × g to collect the blood plasma. 10 µL of plasma portion were transferred into a tube containing 40 µL of 8:2 acetonitrile/water to precipitate proteins. The samples were centrifuged at 17,000 × g for 10 min at 4 °C. Supernatants were then transferred to new tubes and subjected to analysis by LC-MS. […]
assays. The fluorescent-labeled peptides w ere dissolved to 10 m M in D M SO and diluted to 20 µM in DM SO for use. Each well contained 19 µL of HSA in PBSwith the range of final […]
1 µL of 20 µM of fluorescentlly labeled peptide was added to the wells to a final concentration of 1 µM . Each measuring point was made in duplicate. Before measuring, the plate was centrifuged 500×g for 5 min at RT, incubated for 10 m in, and shaken for 5 m in the dark. The m easurem ent w as perform ed in Cytation5 Cell Imaging Multi-Mode Reader from BioTek. The data were analyzed and processed in […]
26. […]
prepared with the identical buffer as the peptides to a final concentration of 40 µM . […] The data were evaluated using the MicroCalTM OriginTM Version 5.0. […]

HSA [3] = target: T1, HSA; conditions: 19F NMR competition
[4] = target: Serum albumin (Homo sapiens) (UniProt P02768); conditions: cited from earlier work
[5] = Reactivity of macrocycles with thiol nucleophiles; format: physicochemical; conditions: several hours, basic pH
Description: 6-10 Å and the PM F of the pocket 1 starts to deviate from the others, we performed hydrogen bond interaction searches with 3.5 Å cut off distance between a donor and an acceptor at intermediate regime from umbrella sampling simulations. These findings […]
of the peptide to the pocket 1 binding site of albumin. This was supported by the fact that […]
simulation time (Supplementary Fig. 27). O verall, these findings provide im portant insights into the m echanism of binding betw een the peptide and album in, w hich could inform the design of future albumin-binding peptides with improved affinity and specificity. The concurrence of the docking results and the experimental binding data provides strong evidence that our simulations accurately predicted the binding for 14c.
Supplementary Fig. 7. […] The OFS-SWCRC […]
peptide was added with one equivalent of GSH in 60% acetonitrile in 50 mM Tris-HCl at pH 8.5.
The reaction was monitored by LC–MS.
Supplementary Fig. 8. Stability of the PFS stapled peptides (A ) Results of the PFS-SW CRC mixed with 2-mercaptoethanol and analyzed by LC–MS after 1 hour and 3 weeks. The PFS-SW CRC macrocycle was combined with 1 equivalent of 2-mercaptoethanol in 60% acetonitrile and 50 mM Tris-HCl at pH 8.5. The mixture was monitored by LC–MS. […]
spectrum of 1 mg of PFS- […] mixed with 1 mg of HSA over 19 days in PBS. The mixture was monitored by 19F NMR in PBS, 10% D2O

[6] = C57BL/6J, mouse, plasma, iv, 200 uL of 100 uM peptide mixture

CC[C@H](C)[C@H](NC(=O)[C@H](CC(C)C)NC(=O)[C@H](CCCNC(=N)N)NC(C)=O)C(=O)N[C@@H](CCC(=O)O)C(=O)N[C@@H](CC(=O)O)C(=O)N[C@H](C(=O)N[C@H]1CSSC[C@@H](C(=O)N[C@@H](CC(C)C)C(=O)N[C@@H](Cc2c[nH]c3ccccc23)C(=O)N[C@@H](CCC(=O)O)C(=O)N[C@@H](CC(=O)O)C(=O)N[C@@H](CC(=O)O)C(N)=O)NC(=O)CNC(=O)[C@H](Cc2c[nH]c3ccccc23)NC(=O)[C@H](CCCNC(=N)N)NC(=O)[C@@H]2CCCN2C(=O)[C@H](CC(C)C)NC1=O)[C@@H](C)CC [SA-21] (Ac-RLIEDICLPRWGCLWEDD-NH2; disulfide 7-13)
Kd (HSA [1]; Discussion, reference not given, read-out: affinity of benchmark): 600 nM
Kd (HSA [1]; read-out: binding affinity to HSA): ~500 nM
level at 2 min [2, 6]: 40000 ng/mL
level at 1 h [2, 6]: 30000 ng/mL
plasma concentration in 3 h study, in words ([2]; mice, tail vein, 2, 60, 180 min): indistinguishable

NC(=O)N1c2ccccc2C=Cc2ccccc21 [carbamazepine]
influence on binding of 14c to HSA (HSA [3]): none of these drugs influenced the binding of 14c

FITC-EYEYKpalmESE-NH2
Kd [4]: 39 nM

OFS-SWCRC
reactivity with glutathione (GSH) [5]: reacted with GSH over 3 hours
